# Experimental data as given in publication PMC5063506, “A Novel Class of Small Molecule Agonists with Preference for Human over Mouse TLR4 Activation” (PLoS ONE, 2016).
# What was measured:
# [1] = LogD, octanol/water distribution coefficient; assay type: physicochemical; settings: pH 7.4; octanol/water distribution coefficient at pH7.4
# From the text: Fig 2 Optimization stages of Ugi products as TLR4 agonists. *Human TLR-4 NFκB SEAP reporter assays; protocol as described in Methods. Data are reported as pEC50, or negative log of the EC50 values. **Clint rh / hm represents intrinsic clearance in presence of rat hepatocytes (μL/min/10^6 cells) and human microsomes (μL/min/mg protein). […] Thus a drug molecule with LogD >4 might be considered to be very lipophilic and therefore more likely to suffer from rapid metabolic turnover, poor solubility and receptor promiscuity; whereas a LogD range of 1–3 is more likely to be associated with optimal physicochemical and drug-like properties. ^††Solubility was measured by dissolution of solid samples in buffer at pH 7.4.
# human TLR4/MD2 = molecular target: T1, human TLR4/MD2 (Homo sapiens, UniProt O00206+Q9Y6Y9); assay: hTLR4/MD2-HEK293 transfectant SEAP (QUANTI-Blue) dose response, AUC; assay type: cell-based; settings: 1 μg/ml to 4 ng/ml, 24 h, SEAP OD 650 nm vs log concentration
# T1 construct: host or cells: HEK293
# Protocol: (§1) Cells were seeded in tissue culture treated clear flat bottom polystyrene 96 well plates (Costar, 3598) at 1e4 cells/well. Concentration-response curves were generated by addition of test compounds and incubation for 20 h at 37°C in an atmosphere of 5% CO2. LPS (E. coli 0111:B4, Ultra-pure, Invivogen) or PHAD (Avanti Polar Lipids) was used as a positive control. The SEAP released was quantified using p nitrophenyl phosphate as a substrate, and the absorbance at 405 nm was measured at 30 second intervals over several minutes using a microplate reader. Some data are recorded as the pEC50, the negative log of the EC50 value. Other data generated from these reporter cell lines were converted to AUC (area under the curve) values by interpolation of fitted cubic spline curve between OD value and log concentration levels. The calculation is performed using MESS package in statistical software R (www.r-project.org/).
# (§2) Fig 4 Ugi compounds preferentially activate TLR4-HEK transfectants expressing human MD2. A-B) HEK293 cells transfected with human TLR4/MD2 or mouse TLR4/MD2 (InVivogen) were stimulated with TLR4 agonists including MPL, PHAD, and Ugi compounds at 1 μg/ml to 4 ng/ml and with LPS at 25 ng/ml to 64 pg/ml for 24 h. SNs were analyzed for SEAP content by the QUANTI-Blue assay (InVivogen) and analysis at 650 nm by spectrophotometer. AUC (area under the curve) values were calculated as in Methods. No AUC value was calculated for LPS since it was utilized with a different dose range. C) HEK transfectants with cis- or trans-species expression of TLR4, MD2, and CD14 were stimulated with Ugi compounds in a dose response range of 9 μM to 1 nM or with LPS (boxes) at 75 ng/ml to 5 pg/ml for 48 h. Data was obtained as Vmax calculated over the initial linear portion of the kinetic absorbance measurements. The AUC (area under the curve) value for the dose response curve of Vmax vs log10 (molar units) was calculated for each compound using Trapezoidal rule. TEXT PRINTED IN THE PICTURE: (A) MPL: hTLR4-HEK AUC: 0.55 | (A) AZ617: hTLR4-HEK AUC: 5.90 | (A) AZ618: hTLR4-HEK AUC: 6.56 | (A) AZ839: hTLR4-HEK AUC: 6.00 | (A) AZ161: hTLR4-HEK AUC: 5.54 | (A) AZ902: hTLR4-HEK AUC: 7.04 | (A) GLA: hTLR4-HEK AUC: 3.75 | (B) MPL: mTLR4-HEK AUC: 13.27 | (B) AZ617: mTLR4-HEK AUC: 0.89 | (B) AZ618: mTLR4-HEK AUC: 1.03 | (B) AZ839: mTLR4-HEK AUC: 0.93 | (B) AZ161: mTLR4-HEK AUC: 0.99 | (B) AZ902: mTLR4-HEK AUC: 1.55 | (B) GLA: mTLR4-HEK AUC: 14.24
# mouse TLR4/MD2 = molecular target: T2, mouse TLR4/MD2 (Mus musculus, UniProt Q9JHF9+Q9QUK6); assay: mTLR4/MD2-HEK293 transfectant SEAP (QUANTI-Blue) dose response, AUC; assay type: cell-based; settings: 1 μg/ml to 4 ng/ml, 24 h, SEAP OD 650 nm vs log concentration
# T2 construct: host or cells: HEK293
# T2 sequence (Q9QUK6 26-835): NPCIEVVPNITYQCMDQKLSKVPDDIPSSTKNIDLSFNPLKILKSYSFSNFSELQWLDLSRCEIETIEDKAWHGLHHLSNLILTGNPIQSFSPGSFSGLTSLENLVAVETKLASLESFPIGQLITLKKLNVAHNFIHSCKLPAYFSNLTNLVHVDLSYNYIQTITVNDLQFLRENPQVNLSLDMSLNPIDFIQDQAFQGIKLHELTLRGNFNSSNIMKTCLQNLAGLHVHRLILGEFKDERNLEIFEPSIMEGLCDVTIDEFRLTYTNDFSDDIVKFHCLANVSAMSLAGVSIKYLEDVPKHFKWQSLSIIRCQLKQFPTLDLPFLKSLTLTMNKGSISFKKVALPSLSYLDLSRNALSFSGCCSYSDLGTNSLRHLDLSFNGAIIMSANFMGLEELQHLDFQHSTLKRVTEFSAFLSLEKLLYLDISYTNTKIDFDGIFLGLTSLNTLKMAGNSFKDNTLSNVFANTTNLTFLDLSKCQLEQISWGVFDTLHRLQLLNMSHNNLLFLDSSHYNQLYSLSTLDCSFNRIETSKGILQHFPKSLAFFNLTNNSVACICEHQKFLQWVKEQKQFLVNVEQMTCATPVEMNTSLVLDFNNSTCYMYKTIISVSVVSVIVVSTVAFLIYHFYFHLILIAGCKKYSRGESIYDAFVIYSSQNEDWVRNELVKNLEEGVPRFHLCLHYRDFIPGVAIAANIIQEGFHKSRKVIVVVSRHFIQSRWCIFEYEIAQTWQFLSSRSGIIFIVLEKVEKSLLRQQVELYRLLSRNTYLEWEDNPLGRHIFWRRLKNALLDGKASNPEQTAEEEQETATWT
# T2 sequence (Q9JHF9 19-160): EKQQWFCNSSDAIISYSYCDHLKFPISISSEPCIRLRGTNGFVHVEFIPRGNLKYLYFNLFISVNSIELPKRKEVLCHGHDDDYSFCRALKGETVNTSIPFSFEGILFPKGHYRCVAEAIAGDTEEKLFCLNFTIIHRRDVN
# Protocol: as §1, §2
# T1 sequence (O00206 24-839): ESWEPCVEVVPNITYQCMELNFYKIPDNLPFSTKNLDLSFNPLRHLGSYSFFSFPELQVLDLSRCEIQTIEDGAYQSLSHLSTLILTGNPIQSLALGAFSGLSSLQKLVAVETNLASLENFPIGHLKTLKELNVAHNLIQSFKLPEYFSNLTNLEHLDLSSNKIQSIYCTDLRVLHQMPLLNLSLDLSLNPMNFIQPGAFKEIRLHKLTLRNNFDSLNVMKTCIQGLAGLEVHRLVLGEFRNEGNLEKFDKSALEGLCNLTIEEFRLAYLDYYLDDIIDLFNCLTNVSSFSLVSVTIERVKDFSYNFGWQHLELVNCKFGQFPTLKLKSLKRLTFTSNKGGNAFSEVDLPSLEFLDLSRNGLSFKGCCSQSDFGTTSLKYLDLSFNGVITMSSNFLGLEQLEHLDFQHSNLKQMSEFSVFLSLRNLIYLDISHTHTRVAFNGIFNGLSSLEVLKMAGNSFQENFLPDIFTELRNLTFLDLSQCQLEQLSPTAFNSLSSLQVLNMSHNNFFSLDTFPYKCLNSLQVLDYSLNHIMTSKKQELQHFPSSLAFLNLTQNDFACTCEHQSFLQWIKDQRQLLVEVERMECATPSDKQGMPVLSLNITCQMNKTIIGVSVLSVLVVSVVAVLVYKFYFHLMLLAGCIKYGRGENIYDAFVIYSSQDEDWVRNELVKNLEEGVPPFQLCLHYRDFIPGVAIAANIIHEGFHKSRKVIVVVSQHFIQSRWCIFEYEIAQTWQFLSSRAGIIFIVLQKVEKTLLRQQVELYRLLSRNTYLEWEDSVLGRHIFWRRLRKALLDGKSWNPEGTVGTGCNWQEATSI
# T1 sequence (Q9Y6Y9 19-160): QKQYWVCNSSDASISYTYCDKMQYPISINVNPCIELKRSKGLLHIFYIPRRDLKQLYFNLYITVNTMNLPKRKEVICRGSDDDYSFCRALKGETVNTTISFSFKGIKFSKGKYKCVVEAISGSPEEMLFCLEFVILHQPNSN
logD [1],hTLR4-HEK AUC (human TLR4/MD2),mTLR4-HEK AUC (mouse TLR4/MD2),Compound
3.2,5.54,0.99,Cc1ccc(N(C(=O)c2cc(-c3ccccc3)n(-c3ccccc3)n2)C(C(=O)NC2CCCC2)c2ccc(CC(=O)O)cc2)cc1Cl (centres unmarked) [AZ161]
2.85,5.90,0.89,O=C(O)Cc1ccc(C(C(=O)NC2CCCC2)N(C(=O)c2cc(-c3ccccc3)n(-c3ccccc3)n2)c2ccc3c(c2)CCC3)cc1 (centres unmarked) [AZ617]
–,6.56,1.03,"Cc1cc(C)cc(N(C(=O)c2cc(-c3ccccc3)n(-c3ccccc3)n2)C(C(=O)NC2CCCC2)c2ccc(CC(=O)O)cc2)c1 (centres unmarked) [AZ618, 2-(4-(2-(cyclopentylamino)-1-(N-(3,5-dimethylphenyl)-1,5-diphenyl-1H-pyrazole-3-carboxamido)-2-oxoethyl)phenyl)acetic acid]"
> 4.5,7.04,1.55,CC(C)(C)c1ccc(N(C(=O)c2cc(-c3ccccc3)n(-c3ccccc3)n2)C(C(=O)NC2CCCC2)c2ccc(CC(=O)O)cc2)cc1 (centres unmarked) [AZ902]
